Experimental data reported in US20220226508A1, “METHODS AND COMPOSITIONS FOR TREATING EPILEPSY” (THE REGENTS OF THE UNIVERSITY OF CALIFORNIA, priority 2019, published 2022).
“Also recorded” adds a separate entry of the source. Where two headings read alike, the source gives them in different places.

How the values were obtained:
[1] = molecular target: T1, human 5-HT2AR (Homo sapiens, UniProt P28223); experiment: biochemical; format: binding
T1 construct: expressed in transfected cells
Experimental: (§1) Receptor Binding Assays. In vitro binding assay and Ki data were performed by the US National Institute of Mental Health Psychoactive Drug Screening Program (NIMH PDSP). Drugs were screened against recombinant, stably expressed human 5-HT2AR, 5-HT2BR, 5-HT2CR and H1. For specific binding assays please refer to detailed procedures at https://pdspdb.unc.edu/pdspWeb/ (Besnard, J. et al., Nature, 492, 215-220, 2012).

[2] = molecular target: T2, human 5-HT2BR (Homo sapiens, UniProt P41595); experiment: biochemical; format: binding; details: for Ki: read-out: binding affinity (Ki) 5-HT2BR; for specificity / selectivity for 5-HT2BR over other 5-HT2R subtypes: radioligand binding
T2 construct: expressed in transfected cells
Experimental: as §1

[3] = molecular target: T3, human 5-HT2CR (Homo sapiens, UniProt P28335); experiment: Radioligand binding assay (NIMH PDSP), 5-HT2CR
T3 construct: expressed in transfected cells
T3 sequence (P28335 33-458): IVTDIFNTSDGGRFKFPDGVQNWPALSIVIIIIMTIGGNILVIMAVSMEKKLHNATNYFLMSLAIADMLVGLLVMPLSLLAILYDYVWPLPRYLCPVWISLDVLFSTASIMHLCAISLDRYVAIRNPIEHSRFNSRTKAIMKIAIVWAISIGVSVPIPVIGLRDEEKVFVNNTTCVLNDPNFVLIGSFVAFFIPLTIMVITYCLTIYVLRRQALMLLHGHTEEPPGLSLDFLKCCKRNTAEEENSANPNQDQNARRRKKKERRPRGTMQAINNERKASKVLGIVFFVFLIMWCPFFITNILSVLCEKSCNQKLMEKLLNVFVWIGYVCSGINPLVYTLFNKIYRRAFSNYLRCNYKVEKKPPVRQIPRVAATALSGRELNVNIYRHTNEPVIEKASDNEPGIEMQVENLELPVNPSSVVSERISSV
Experimental: as §1

[4] = system: scn1lab mutant zebrafish; experiment: Locomotion assay of high-velocity seizure-like swim behavior; format: in vivo, zebrafish (Danio rerio); details: for effect on seizure-like swim behavior (change in mean velocity): commercial 5-HT2BR/dopamine agonists, three concentrations; for effect on seizure-like swim behavior (change in mean velocity) / suppression of seizure-like swim behavior (change in mean velocity): 30 and 90 min exposure, threshold ≥40%; for suppression of seizure-like swim behavior (change in mean velocity): independently resynthesized compounds retested at 10, 50, 100 and 250 μM; for suppression of seizure-like swim behavior (change in mean swim velocity): initial library screen at 100 μM and 250 μM, 5 dpf larvae, threshold reduction ≥40%
Excerpt: Zebrafish maintenance. Zebrafish were raised under standard laboratory conditions in accordance with requirements outlined in the Guide for the Care and Use of Animals (ebrary Inc., 2011) and experiments were approved by the Institutional Animal Care and Use Committee (protocol #AN108659-03). Embryos were obtained by natural spawning of scn1lab (didy^s552) heterozygous animals that had been outcrossed to TL strain. Homozygous scn1lab mutants (n=2500) have dispersed melanosomes and appear visibly darker by 3 dpf compared to WT larvae.
Seizure monitoring. At 5 dpf individual zebrafish larvae were placed into a single well of a clear flat-bottomed 96-well microplate containing embryo media. Larvae were selected randomly as sex determination is not possible at this stage of development. All drug screening experiments were conducted in an unbiased manner by investigators blinded to the test compounds and all files coded for post hoc analysis. Microplates were placed inside the DanioVision and acclimated for 20 min at room temperature. Locomotion plots were obtained for each well at a recording epoch of 10 min using EthoVision XT software (DanioVision, Noldus Information Technology). Seizure scoring was performed using the following three-stage scale established for pentylenetetrazole-induced seizures: Stage 0, no or very little swim activity; Stage I, increased, brief bouts of swim activity; Stage II, rapid “whirlpool-like” circling swim behavior; and Stage III, paroxysmal whole-body clonus-like convulsions, and a brief loss of posture. WT fish are typically scored at Stage 0 or I. Plots were analyzed for distance travelled (in millimeters) and mean velocity (in millimeters per second). After 90 mins of drug exposure larvae were examined for toxic side-effects. Compounds that decreased or stopped the larva heartbeat, or reduced or eliminated the escape response when touched, were considered toxic.
Statistics. Data are presented as the mean±standard error of the mean (SEM), unless otherwise stated. For behavior analysis, the threshold for a change in mean swim velocity ≥40% (>1.5×SD of 250 control treated scn1lab) is considered significant. For comparison between more than two groups one-way ANOVA analysis was used. […] Differences considered statistically significant are indicated with asterisks (*P<0.05; **P<0.01).

[5] = molecular target: T1, human 5-HT2AR; details: read-out: binding affinity (Ki) 5-HT2A / 5-HT2AR, cited from earlier work
[6] = molecular target: T2, human 5-HT2BR
[7] = molecular target: T3, human 5-HT2CR
[8] = molecular target: human H1 receptor (Homo sapiens, UniProt P35367); experiment: Radioligand binding assay (NIMH PDSP), H1; parameters: expressed in transfected cells; details: read-out: binding affinity (Ki) H1
Experimental: as §1

[9] = system: scn1lab mutant zebrafish; experiment: Local field potential (LFP) electrophysiology of electrographic seizure events; format: in vivo, zebrafish (Danio rerio); details: 100 μM; 10 min LFP recording, 5 dpf larvae
Experimental: For electrophysiology studies, zebrafish larvae were anesthetized with cold and immobilized in 1.2% agarose; local field potential (LFP) recordings were obtained from forebrain or optic tectum structures using a single-electrode approach, as previously described (Baraban, S. C. et al., Neuroscience, 131, 759-768, 2005). Agarose-embedded LFP recording sessions of 10 min were obtained at 1 kHz. Epileptiform events were identified post hoc and defined as multi-spike or poly-spike upward or downward membrane deflections greater than 3× baseline noise level and 150-250 ms in duration (interictal-like) or greater than 5× baseline noise, multi-spike and >500 ms in duration (ictal-like); both events were counted using threshold detection settings in Clampfit (Molecular Devices; Sunnyvale, Calif.). During electrophysiology experiments larvae were continuously monitored for blood flow and heart rate using an Axiocam digital camera at video frame rate.
Monitoring electrographic brain activity to confirm seizure suppression is an essential assay to eliminate false positives from behavioral testing (Griffin, A. et al., Frontiers in Pharmacology, 9, 2018). By placing a microelectrode into a visually identified brain region of an agar-immobilized zebrafish larval, stable local field potential (LFP) recordings can be monitored for several hours (Baraban, S. C. et al., Nat Commun, 4, 2410, 2013). At 5 dpf LFP recordings of scn1Lab zebrafish larvae show an average of 250 abnormal electrographic seizure events during a 10 min recording epoch.

[10] = read-out: binding affinity (Ki) 5-HT2AR
[11] = clemizole analogs, recombinant human receptor
[12] = clemizole analogs, recombinant human receptor, read-out: binding affinity (Ki) 5-HT2CR
[13] = known drugs and commercial compounds; read-out: binding affinity (Ki) 5-HT2B / 5-HT2BR; cited from earlier work
[14] = known drugs and commercial compounds; read-out: binding affinity (Ki) 5-HT2C / 5-HT2CR; cited from earlier work
[15] = read-out: binding affinity (Ki) 5-HT2CR
[16] = clemizole analogs, recombinant human receptor, read-out: binding affinity (Ki) 5-HT2AR
[17] = known drugs and commercial compounds

Sequence of human H1 receptor (P35367 whole entry): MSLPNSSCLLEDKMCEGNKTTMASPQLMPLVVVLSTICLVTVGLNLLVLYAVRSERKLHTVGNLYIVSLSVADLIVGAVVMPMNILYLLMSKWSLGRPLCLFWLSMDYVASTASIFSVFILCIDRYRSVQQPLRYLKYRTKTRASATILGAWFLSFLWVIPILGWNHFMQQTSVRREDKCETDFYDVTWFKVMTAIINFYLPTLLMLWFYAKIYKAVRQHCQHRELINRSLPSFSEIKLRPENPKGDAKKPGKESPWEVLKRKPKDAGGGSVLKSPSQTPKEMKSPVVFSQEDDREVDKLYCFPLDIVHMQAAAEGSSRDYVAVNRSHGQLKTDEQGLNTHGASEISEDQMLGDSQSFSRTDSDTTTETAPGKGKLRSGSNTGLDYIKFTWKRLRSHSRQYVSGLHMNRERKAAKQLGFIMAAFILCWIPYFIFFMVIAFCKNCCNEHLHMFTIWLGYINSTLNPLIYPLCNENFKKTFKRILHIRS
T1 sequence (P28223 whole entry): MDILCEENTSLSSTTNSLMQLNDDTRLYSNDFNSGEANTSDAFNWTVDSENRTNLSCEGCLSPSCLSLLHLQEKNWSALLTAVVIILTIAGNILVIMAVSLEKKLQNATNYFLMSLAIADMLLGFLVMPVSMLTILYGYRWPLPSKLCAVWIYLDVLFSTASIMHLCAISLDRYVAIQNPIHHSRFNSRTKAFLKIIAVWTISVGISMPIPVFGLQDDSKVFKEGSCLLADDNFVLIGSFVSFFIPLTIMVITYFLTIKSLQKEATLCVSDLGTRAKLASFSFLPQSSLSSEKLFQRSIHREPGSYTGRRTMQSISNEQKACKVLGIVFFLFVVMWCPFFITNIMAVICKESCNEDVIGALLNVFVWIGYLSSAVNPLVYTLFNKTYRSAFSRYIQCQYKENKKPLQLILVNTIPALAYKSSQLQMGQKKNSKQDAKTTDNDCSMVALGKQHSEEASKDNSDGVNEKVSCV
T2 sequence (P41595 whole entry): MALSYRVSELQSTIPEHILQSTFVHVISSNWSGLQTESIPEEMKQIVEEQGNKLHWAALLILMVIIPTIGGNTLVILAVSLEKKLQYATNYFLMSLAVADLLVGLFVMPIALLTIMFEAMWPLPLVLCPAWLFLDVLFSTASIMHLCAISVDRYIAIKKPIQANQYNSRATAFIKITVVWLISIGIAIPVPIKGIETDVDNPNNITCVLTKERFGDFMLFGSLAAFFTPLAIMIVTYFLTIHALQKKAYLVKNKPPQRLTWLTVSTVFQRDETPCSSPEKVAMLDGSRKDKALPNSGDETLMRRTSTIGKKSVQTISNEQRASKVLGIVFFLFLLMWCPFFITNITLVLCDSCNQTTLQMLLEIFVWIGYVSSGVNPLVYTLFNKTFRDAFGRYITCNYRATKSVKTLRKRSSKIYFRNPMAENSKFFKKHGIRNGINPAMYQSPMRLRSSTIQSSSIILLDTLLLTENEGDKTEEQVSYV

Molecule `Clc1ccc(Cn2c(CC3CCCC3)nc3ccccc32)cc1` [Compound 1, 1-[(4-Chlorophenyl)methyl]-2-(cyclopentylmethyl)-1H-benzimidazole] has a Ki [1, 10] greater than 10000 nM, a Ki [2, 11] of 501 nM and a Ki [3, 12] of 2730 nM.
In the case of `C[C@H](N)Cn1ccc2cc(F)c(Cl)cc21` [Ro 60-0175], the “effect on seizure-like swim behavior (change in mean velocity)” value (from here on “effect … (change in mean velocity)”) [4] is listed as “consistently decreased mean velocity and was borderline effective after 90 mins of drug exposure”, the Ki [5] is listed as 37.2 nM and the Ki [6, 13] is listed as 4.3 nM. For the same molecule, the Ki [7, 14] was 9.1 nM.
Molecule `Clc1ccc(Cn2c(CN3CCCCC3)nc3ccccc32)cc1` [Compound 22] has a Ki [1, 10] of 623 nM, a Ki [2] of 306 nM and a Ki [3, 15] of 4580 nM. For the same molecule, the Ki [8] was 8.5 nM.
Molecule `CN1CCN(Cc2nc3ccccc3n2Cc2ccc(Cl)cc2)CC1` [Compound 26] has a Ki [1, 10] of 316 nM, a Ki [2] of 20 nM and a Ki [3, 15] of 313 nM. It also gave a Ki [8] of 1.2 nM.
With `Cl.Clc1cccc(N2CCNCC2)c1` [mCPP, 1-(3-Chlorophenyl)piperazine hydrochloride, reference compound] the “effect … (change in mean velocity)” value [4] was “biphasic response”.
Work on `c1ccc(Cn2c(CN3CCCC3)nc3ccccc32)cc1` [Compound 3] yielded a Ki [1, 10] of 327 nM, a Ki [2] of 83 nM and a Ki [3, 15] of 292 nM. For the same molecule, the Ki [8] was 4.8 nM.
`CCN(CC)Cc1nc2ccccc2n1Cc1ccc(Cl)cc1` [Compound 24, ({1-[(4-Chlorophenyl)methyl]-1H-1,3-benzodiazol-2-yl}methyl)diethylamine] gave a Ki [1, 16] of 1260 nM, a Ki [2, 11] of 115 nM and a Ki [3, 12] of 1410 nM. For the same molecule, the Ki [8, 11] was 3.7 nM.
For `c1ccc2c(c1)nc(CN1CCCC1)n2CC1CCCCC1` [Compound 4, 1-(Cyclohexylmethyl)-2-[(pyrrolidin-1-yl)methyl]-1H-benzimidazole], the Ki [1] was greater than 10000 nM, the Ki [2, 11] was 612 nM and the “specificity / selectivity for 5-HT2BR over other 5-HT2R subtypes” value (shortened to “specificity / selectivity for 5-HT2BR”) [2] was “specificity for 5-HT2BR over other 5-HT2R subtypes; also recorded: significant preference for 5-HT2BR”. The Ki [3] was greater than 10000 nM, the “suppression of seizure-like swim behavior (change in mean velocity)” value (“suppression … (change in mean velocity)” for short) [4] was “reduced the high-velocity seizure-like swim behavior” and the “suppression of seizure-like swim behavior (change in mean swim velocity)” value (“suppression … (change in mean swim velocity)” below) [4] was “effective in suppressing”. The “frequency of electrographic seizure (epileptiform) events” value [9] was “significant changes in the frequency of events; also recorded: significant suppression of electrographic seizure activity” and the Ki [8, 11] was 153 nM.
For `Clc1ccc(Cn2c(CN3CCCC3)cc3ccccc32)cc1` [Compound 11, 1-[(4-Chlorophenyl)methyl]-2-[(pyrrolidin-1-yl)methyl]-1H-indole], the Ki [1, 16] was 631 nM, the Ki [2, 11] was 134 nM and the Ki [3, 12] was 248 nM. The Ki [8, 11] was 6.4 nM.
Molecule `Clc1ccc(Cn2c(CN3CCSC3)nc3ccccc32)cc1` [Compound 28] has a Ki [1, 10] greater than 10000 nM, a Ki [2] of 464 nM and a Ki [3, 15] of 1080 nM. It also gave a Ki [8] of 44 nM.
For `CCCn1c(CN2CCCC2)nc2ccccc21` [Compound 5], the Ki [1, 10] was greater than 10000 nM, the “specificity / selectivity for 5-HT2BR” value [2] was “specific binding for 5HT2BR; also recorded: selectivity for 5-HT2BR” and the Ki [2] was 219 nM. The Ki [3, 15] was greater than 10000 nM, the “suppression … (change in mean velocity)” value [4] was “no significant effect on the high-speed seizure-like behavior; also recorded: no significant effect on the swim behavior” and the “suppression … (change in mean swim velocity)” value [4] was “no significant effect on swim behavior”. For the same molecule, the Ki [8] was 362 nM.
For `CN1CCc2cccc3c2[C@H]1Cc1ccc(O)c(O)c1-3` [apomorphine, reference compound], the “effect … (change in mean velocity)” value [4] was “significantly increased mean swim velocity”.
Molecule `Fc1ccc(Cn2c(CN3CCCC3)nc3ccccc32)cc1` [Compound 7] has a Ki [1, 10] of 15 nM, a Ki [2] of 46 nM and a Ki [3, 15] of 345 nM. The Ki [8] was 1 nM.
In the case of `Nc1ccc(Cn2c(CN3CCCC3)nc3ccccc32)cc1` [Compound 14], the Ki [1, 10] is reported as greater than 10000 nM, the “specificity / selectivity for 5-HT2BR” value [2] is reported as “specific binding for 5HT2BR; also recorded: selectivity for 5-HT2BR” and the Ki [2] is reported as 606 nM. The Ki [3, 15] was greater than 10000 nM, the “suppression … (change in mean velocity)” value [4] was “no significant effect on the high-speed seizure-like behavior; also recorded: no significant effect on the swim behavior” and the “suppression … (change in mean swim velocity)” value [4] was “no significant effect on swim behavior”. For the same molecule, the Ki [8] was 27 nM.
In the case of `CN(C)C1CCc2cc(O)c(O)cc2C1` (stereo not shown) [TL-99], the “effect … (change in mean velocity)” value [4] is given as “failed to elicit any behavioral effect”, the Ki [5, 17] is given as 2340 nM and the Ki [6, 13] is given as 2040 nM. For the same molecule, the Ki [7, 14] was 2290 nM.
In the case of `Clc1cccc(COc2cncc(N3CCNCC3)n2)c1` [CP-809,101], the “effect … (change in mean velocity)” value [4] is listed as “biphasic response”, the Ki [5, 17] is listed as 1.6 nM and the Ki [6, 13] is listed as 6 nM. For the same molecule, the Ki [7, 14] was 64 nM.
For `CC(N)Cc1cccc(C(F)(F)F)c1` (stereo not shown) [norfenfluramine], the “effect … (change in mean velocity)” value [4] is given as “suppressed convulsive swim behaviors in a concentration-dependent manner”, the Ki [5] is given as 194 nM and the Ki ([6]; read-out: binding affinity (Ki) 5-HT2B / 5-HT2BR; known drugs and commercial compounds; cited from earlier work) is given as 18 nM. For the same molecule, the Ki ([7]; read-out: binding affinity (Ki) 5-HT2C / 5-HT2CR; known drugs and commercial compounds; cited from earlier work) was 306 nM.
In the case of `CC(N)Cc1c[nH]c2ccc(OCc3cccs3)cc12` (stereo not shown) [BW-723C86, reference compound], the “effect … (change in mean velocity)” value [4] is reported as “showed a decrease in seizure-like swim behavior, but also failed to reach our significance threshold”.
For `C=CCN1C[C@H](C(=O)N(CCCN(C)C)C(=O)NCC)C[C@@H]2c3cccc4[nH]cc(c34)C[C@H]21` [cabergoline], the “effect on convulsive swim behavior” value ([4]; 250 μM) is listed as “significantly reduced convulsive swim-behavior”, the Ki [5, 17] is listed as 6.17 nM and the Ki [6, 13] is listed as 1.2 nM. The Ki [7, 14] was 692 nM.
